# Inconclusive results and toxic doses are left out.
# Tested on: L1210 leukemia ip in BDF1 mice, survival T/C
# Test: NCI In Vivo Anticancer Drug Screen. Data for tumor model L1210 Leukemia (intraperitoneal) in B6D2F1 (BDF1) mice
# Details: endpoint: mean survival time, higher = longer survival
# How it was run: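 Read-out is survival time, reported as the treated-group measurement over the vehicle-control measurement.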
# [1] = dose: 100.0 mg/kg/injection, schedule: Q04DX003 (ip), vehicle: Klucel (hydroxypropylcellulose) (HPC)
# [2] = dose: 200.0 mg/kg/injection, schedule: Q04DX003 (ip), vehicle: Klucel (hydroxypropylcellulose) (HPC)
# [3] = dose: 100.0 mg/kg/injection, schedule: Q01DX009 (ip), vehicle: saline with Tween-80
# [4] = dose: 200.0 mg/kg/injection, schedule: Q01DX009 (ip), vehicle: saline with Tween-80
# [5] = dose: 200.0 mg/kg/injection, schedule: Q04DX002 (ip), vehicle: Klucel (hydroxypropylcellulose) (HPC)
# [6] = dose: 100.0 mg/kg/injection, schedule: Q04DX003 (ip), vehicle: saline with Tween-80
# [7] = dose: 400.0 mg/kg/injection, schedule: Q01DX009 (ip), vehicle: saline with Tween-80
# [8] = dose: 75.0 mg/kg/injection, schedule: Q01DX001 (ip), vehicle: saline
# [9] = dose: 150.0 mg/kg/injection, schedule: Q01DX001 (ip), vehicle: saline
# [10] = dose: 100.0 mg/kg/injection, schedule: Q04DX002 (ip), vehicle: saline with Tween-80
# [11] = dose: 200.0 mg/kg/injection, schedule: Q04DX002 (ip), vehicle: saline with Tween-80
smiles,measurement,setting,value
CC/C(=C(\CC)c1ccc(OCC(=O)OCCNCCCl)cc1)c1ccc(OCC(=O)OCCNCCCl)cc1,T/C,"dose: 6.25 mg/kg/injection, schedule: Q04DX002 (ip), vehicle: saline",94 % of control
same,T/C,"dose: 12.5 mg/kg/injection, schedule: Q04DX002 (ip), vehicle: saline",97 % of control
same,T/C,"dose: 25.0 mg/kg/injection, schedule: Q04DX002 (ip), vehicle: saline",94 % of control
O=C1NC(=O)C(c2ccco2)N1 (centres undefined),T/C,[1],105 % of control
same,T/C,[2],103 % of control
same,T/C,"dose: 400.0 mg/kg/injection, schedule: Q04DX003 (ip), vehicle: Klucel (hydroxypropylcellulose) (HPC)",114 % of control
O=C(/C=C/c1ccc2c(c1)OCO2)c1ccc(Cl)cc1,T/C,"dose: 50.0 mg/kg/injection, schedule: Q01DX009 (ip), vehicle: saline with Tween-80",97 % of control
same,T/C,[3],95 % of control
same,T/C,[4],96 % of control
Cc1ccc(NC(=O)Oc2cc(C)ccc2C(C)C)cc1,T/C,"dose: 100.0 mg/kg/injection, schedule: Q01DX009 (ip), vehicle: Klucel (hydroxypropylcellulose) (HPC)",113 % of control
same,T/C,"dose: 200.0 mg/kg/injection, schedule: Q01DX009 (ip), vehicle: Klucel (hydroxypropylcellulose) (HPC)",94 % of control
same,T/C,"dose: 400.0 mg/kg/injection, schedule: Q01DX009 (ip), vehicle: Klucel (hydroxypropylcellulose) (HPC)",97 % of control
C=C(S(=O)(=O)c1ccccc1)S(=O)(=O)c1ccccc1 (tested in a mixture with another compound),T/C,"dose: 10.0 mg/kg/injection, schedule: Q04DX002 (ip), vehicle: Klucel (hydroxypropylcellulose) (HPC)",117 % of control
same,T/C,"dose: 20.0 mg/kg/injection, schedule: Q04DX002 (ip), vehicle: Klucel (hydroxypropylcellulose) (HPC)",102 % of control
same,T/C,"dose: 40.0 mg/kg/injection, schedule: Q04DX002 (ip), vehicle: Klucel (hydroxypropylcellulose) (HPC)",91 % of control
same,T/C,[5],86 % of control
Cc1[nH]ccc2c(C)c3nc4ccccc4c3cc12,T/C,"dose: 2.5 mg/kg/injection, schedule: Q01DX Z (ip), vehicle: carboxymethylcellulose (CMC)",110 % of control
same,T/C,"dose: 5.0 mg/kg/injection, schedule: Q01DX Z (ip), vehicle: carboxymethylcellulose (CMC)",114 % of control
same,T/C,"dose: 29.0 mg/kg/injection, schedule: Q04DX003 (ip), vehicle: saline with Tween-80",122 % of control
same,T/C,"dose: 40.0 mg/kg/injection, schedule: Q01DX Z (ip), vehicle: saline",151 % of control
same,T/C,"dose: 50.0 mg/kg/injection, schedule: Q01DX001 (ip), vehicle: saline",98 % of control
same,T/C,"dose: 75.0 mg/kg/injection, schedule: Q01DX Z (ip), vehicle: saline",110 % of control
same,T/C,"dose: 100.0 mg/kg/injection, schedule: Q01DX001 (ip), vehicle: saline",112 % of control
same,T/C,"dose: 100.0 mg/kg/injection, schedule: Q01DX Z (ip), vehicle: saline",92 % of control
same,T/C,[6],165 % of control
same,T/C,"dose: 150.0 mg/kg/injection, schedule: Q04DX003 (ip), vehicle: saline with Tween-80",153 % of control
same,T/C,"dose: 200.0 mg/kg/injection, schedule: Q01DX001 (ip), vehicle: saline",110 % of control
same,T/C,"dose: 400.0 mg/kg/injection, schedule: Q01DX001 (ip), vehicle: saline",122 % of control
O=C(O)COc1nc(Cl)c(Cl)cc1Cl,T/C,"dose: 100.0 mg/kg/injection, schedule: Q04DX002 (ip), vehicle: Klucel (hydroxypropylcellulose) (HPC)",107 % of control
same,T/C,[5],104 % of control
O=C(Nc1ccccc1C(F)(F)F)c1cccc(C(=O)Nc2ccccc2C(F)(F)F)c1,T/C,[3],86 % of control
same,T/C,[6],87 % of control
same,T/C,[7],88 % of control
CC1(C)OC2C3CC(C2O1)n1cnc2c(N)nc[n+](c21)C3 (centres undefined),T/C,[8],120 % of control
same,T/C,[9],101 % of control
same,T/C,"dose: 300.0 mg/kg/injection, schedule: Q01DX001 (ip), vehicle: saline",106 % of control
O=C(O)CCC(Nc1sc([N+](=O)[O-])cc1[N+](=O)[O-])C(=O)O (centres undefined),T/C,[10],95 % of control
same,T/C,[11],106 % of control
same,T/C,"dose: 400.0 mg/kg/injection, schedule: Q04DX002 (ip), vehicle: saline with Tween-80",92 % of control
CCCCc1c(C)c2c(O)cc(C)cc2oc1=O,T/C,"dose: 100.0 mg/kg/injection, schedule: Q01DX001 (ip), vehicle: acetone",92 % of control
same,T/C,"dose: 200.0 mg/kg/injection, schedule: Q01DX001 (ip), vehicle: acetone",95 % of control
same,T/C,"dose: 400.0 mg/kg/injection, schedule: Q01DX001 (ip), vehicle: acetone",92 % of control
COc1cc2c(c(O)c1OCC=C(C)C)c(=O)c1ccccc1n2C,T/C,"dose: 100.0 mg/kg/injection, schedule: Q01DX001 (ip), vehicle: carboxymethylcellulose (CMC)",93 % of control
same,T/C,"dose: 200.0 mg/kg/injection, schedule: Q01DX001 (ip), vehicle: carboxymethylcellulose (CMC)",95 % of control
same,T/C,"dose: 400.0 mg/kg/injection, schedule: Q01DX001 (ip), vehicle: carboxymethylcellulose (CMC)",88 % of control
CC(=O)Nc1cc2c(cc1Br)-c1ccc(F)cc1C2,T/C,"dose: 200.0 mg/kg/injection, schedule: Q01DX Z (ip), vehicle: saline",98 % of control
same,T/C,"dose: 400.0 mg/kg/injection, schedule: Q01DX Z (ip), vehicle: saline",102 % of control
same,T/C,"dose: 800.0 mg/kg/injection, schedule: Q01DX Z (ip), vehicle: saline",110 % of control
O=C1c2ccccc2C(=O)N1OCCCCCCON1C(=O)c2ccccc2C1=O,T/C,"dose: 100.0 mg/kg/injection, schedule: Q04DX003 (ip), vehicle: saline",92 % of control
same,T/C,"dose: 200.0 mg/kg/injection, schedule: Q04DX003 (ip), vehicle: saline",94 % of control
same,T/C,"dose: 400.0 mg/kg/injection, schedule: Q04DX003 (ip), vehicle: saline",97 % of control
Clc1ccc(N2CCN(CCCN3CCN(c4cccc(Cl)c4)CC3)CC2)cc1,T/C,[1],88 % of control
same,T/C,[2],91 % of control
CCCCCCCCCCCCNC(=O)OCCN(CCOC(=O)NCCCCCCCCCCCC)C(=O)COc1ccc(Cl)cc1,T/C,"dose: 100.0 mg/kg/injection, schedule: Q01DX009 (ip), vehicle: other",92 % of control
same,T/C,"dose: 200.0 mg/kg/injection, schedule: Q01DX009 (ip), vehicle: other",92 % of control
same,T/C,"dose: 400.0 mg/kg/injection, schedule: Q01DX009 (ip), vehicle: other",96 % of control
O=NN(CCCl)C(=O)N(C1CCCCC1)C1CCCCC1,T/C,"dose: 177.0 mg/kg/injection, schedule: Q01DX009 (ip), vehicle: carboxymethylcellulose (CMC)",121 % of control
same,T/C,"dose: 400.0 mg/kg/injection, schedule: Q01DX009 (ip), vehicle: carboxymethylcellulose (CMC)",117 % of control
same,T/C,"dose: 600.0 mg/kg/injection, schedule: Q01DX009 (ip), vehicle: carboxymethylcellulose (CMC)",166 % of control
Nc1ccc(Cc2[nH]c(=O)[nH]c(=O)c2Br)cc1[N+](=O)[O-],T/C,"dose: 25.0 mg/kg/injection, schedule: Q01DX001 (ip), vehicle: Klucel (hydroxypropylcellulose) (HPC)",103 % of control
same,T/C,"dose: 50.0 mg/kg/injection, schedule: Q01DX001 (ip), vehicle: Klucel (hydroxypropylcellulose) (HPC)",95 % of control
same,T/C,"dose: 100.0 mg/kg/injection, schedule: Q01DX001 (ip), vehicle: Klucel (hydroxypropylcellulose) (HPC)",93 % of control
Cc1ccc(Nc2cc(=S)nc(N)[nH]2)cc1,T/C,"dose: 100.0 mg/kg/injection, schedule: Q01DX Z (ip), vehicle: methylcellulose (MC)",93 % of control
same,T/C,"dose: 200.0 mg/kg/injection, schedule: Q01DX Z (ip), vehicle: methylcellulose (MC)",86 % of control
Cc1nc(N)sc1N=Nc1cc(Br)ccc1Br,T/C,[8],97 % of control
same,T/C,[9],114 % of control
O=C1CN(CCN2CC(=O)NC2=S)C(=S)N1,T/C,[10],95 % of control
same,T/C,[11],100 % of control
CC(C)=CCC/C(C)=C/COC(=O)Cc1ccccc1,T/C,[3],103 % of control
same,T/C,[6],97 % of control
same,T/C,[4],110 % of control
same,T/C,"dose: 200.0 mg/kg/injection, schedule: Q04DX003 (ip), vehicle: saline with Tween-80",98 % of control
same,T/C,[7],103 % of control
same,T/C,"dose: 400.0 mg/kg/injection, schedule: Q04DX003 (ip), vehicle: saline with Tween-80",103 % of control

# Reference: PubChem BioAssay AID248 (DTP/NCI, 2004)
